The values that follow come from patent publication US7622500B2, “Antiparasitic agents” (Pfizer Limited, priority 2007, dated 2009).

Structures are written as SMILES.

The experiment has as its system Haemonchus contortus L3. Description: Haemonchus contortus L3 (HcL3) in vitro test. In kind it is cell-based. The conditions noted are these: minimum effective dose, exsheathed L3 larvae, 37° C., observed 2 hrs to 4 days, dose responses 100-0.1 μg/ml, n=2, read-out: H.c. (L3) MED. Here is the method:
The Haemonchus contortus L3 (HcL3) test is used to measure the biological activities of the compounds claimed. The assay involves in vitro testing against H. contortus conducted according to the following general procedure.
HcL3 larvae were collected from infected sheep and, after cleaning, stored in water at 12° C. for up to one month. Viable infective larvae were exsheathed using 10% hypochlorite in Glucose Tyrodes balanced salt solution containing antibiotics and resuspended in basal medium (20 g/l bacto-tryptone, 5 g/l yeast extract, 57 g/l glucose, 0.8 g/l di-Potassium hydrogen orthophosphate, 0.8 g/l potassium dihydrogen orthophosphate and […] Hepes with antibiotics). 95 μl worm suspension was added to each well of a 96 well plate.
Test compounds were dissolved in dimethylsulfoxide to give a working stock solution of 20 mg/ml. The stock concentration was diluted 1:10 in Basal media to give 2.0 mg/ml (10% DMSO). 5 μl of the stock compound solution was added to the worm suspension to give a final concentration of 100 μg/ml. Plates were sealed with pressure sensitive film and incubated at 37° C. Observations were made 2 hrs, 24 hrs, 48 hrs, 72 hrs and 4 days post-treatment using an inverted microscope. Activity was recorded if a significant proportion of the worms were dead or adversely affected by the compound when compared to the control well containing 1% DMSO. Compounds were initially tested at 100 μg/ml, wherefrom relevant dose responses (100, 30, 10, 3, 1, 0.3, 0.1 μg/ml) were conducted in duplicate experiments to generate n=2. Data was recorded as minimum effective dose.
As to `CC(C#N)(NC(=O)c1ccc(OC(F)(F)F)cc1)C1Cc2cc(C#N)ccc2O1` (centres unmarked) [Example 1a, N-[1-Cyano-1-(5-cyano-2,3-dihydro-1-benzofuran-2-yl)ethyl]-4-(trifluoromethoxy)benzamide], the minimal effective concentration came out at 3 µg/mL.

Turning to `CC(C#N)(NC(=O)c1ccc(SC(F)(F)F)cc1)C1Cc2cc(C#N)ccc2O1` (centres unmarked) [Example 2, N-[1-Cyano-1-(5-cyano-2,3-dihydro-1-benzofuran-2-yl)ethyl]-4-[(trifluoromethyl)thio]benzamide], the minimal effective concentration was 3 µg/mL.

For the molecule `CC(C#N)(NC(=O)c1ccc(OC(F)(F)F)cc1)C1Cc2ccccc2O1` (centres unmarked) [Example 3, N-[1-Cyano-1-(2,3-dihydro-1-benzofuran-2-yl)ethyl]-4-(trifluoromethoxy)benzamide], the minimal effective concentration amounted to 30 µg/mL.

Consider `CC(C#N)(NC(=O)c1ccc(C(F)(F)F)cc1)C1Cc2cc(Cl)ccc2O1` (centres unmarked) [Example 5, N-[1-(5-Chloro-2,3-dihydro-1-benzofuran-2-yl)-1-cyanoethyl]-4-(trifluoromethyl)benzamide], for which the minimal effective concentration amounted to 30 µg/mL.

Consider `CC(C#N)(NC(=O)c1ccc(OC(F)(F)F)cc1)C1Cc2cccc(C#N)c2O1` (centres unmarked) [Example 6, N-[1-Cyano-1-(7-cyano-2,3-dihydro-1-benzofuran-2-yl)ethyl]-4-(trifluoromethoxy)benzamide], for which the minimal effective concentration is 10 µg/mL.

Consider `CC(C#N)(NC(=O)c1ccc(SC(F)(F)F)cc1)C1Cc2cccc(C#N)c2O1` (centres unmarked) [Example 7, N-[1-Cyano-1-(7-cyano-2,3-dihydro-1-benzofuran-2-yl)ethyl]-4-[(trifluoromethyl)thio]benzamide], for which the minimal effective concentration was determined as 10 µg/mL.

For the molecule `CC(C#N)(NC(=O)c1ccc(OC(F)(F)F)cc1)C1Cc2cc(C#N)cc(Cl)c2O1` (centres unmarked) [Example 8, N-[1-(7-Chloro-5-cyano-2,3-dihydro-1-benzofuran-2-yl)-1-cyanoethyl]-4-(trifluoromethoxy)benzamide], the minimal effective concentration is less than 1 µg/mL.

Take `CC(C#N)(NC(=O)c1ccc(S(F)(F)(F)(F)F)cc1)C1Cc2cc(C#N)cc(Cl)c2O1` (centres unmarked) [Example 9, N-[1-(7-Chloro-5-cyano-2,3-dihydro-1-benzofuran-2-yl)-1-cyanoethyl]-4-(pentafluorothio)benzamide]: the minimal effective concentration was less than 1 µg/mL.
